The values below come from US9133186B2, “Hetero ring-fused imidazole derivative having AMPK activating effect” (Shionogi & Co., Ltd., priority 2010, dated 2015).

The target of the assay is T1, human AMPK α1β1γ1 enzyme (Homo sapiens, UniProt Q13131+Q9Y478).
T1 construct: purchased Carna Biosciences, Inc
In words: AMPK activator evaluation, Test Example 1 (mobility shift, FL-Peptide 7). Format: biochemical. The note with it: human AMPK α1β1γ1, control without compound = 100%; for Emax: read-out: Emax (maximum rate of increase in activity within the measurement range). The protocol:
To a buffer solution consisting of a 50 mM HEPES-NaOH buffer solution (pH 7.0), 100 mM NaCl, 10 mM magnesium chloride, 0.1% bovine serum albumin, 0.2 mM sodium orthovanadate(V), 1 mM ethylene glycol-bis(2-aminoethyl ether)-N,N,N′,N′-tetraacetic acid (EGTA), 5 mM disodium (3-glycerophosphate and 2 mM dithiothreitol, a human AMPK α1β1γ1 enzyme (manufactured by Carna Biosciences, Inc.) was added in an amount to give a conversion rate of approximately 10% by reaction for 2 hours, and a compound dissolved in DMSO was added thereto so as to have a 1% DMSO concentration. The obtained liquid was left to stand for 10 minutes.
To the liquid, a substrate solution consisting of a 50 mM HEPES-NaOH buffer solution (pH 7.0), 100 mM NaCl, 10 mM magnesium chloride, 0.1% bovine serum albumin, 0.2 mM sodium orthovanadate(V), 1 mM ethylene glycol-bis(2-aminoethyl ether)-N,N,N′,N′ tetraacetic acid (EGTA), 5 mM disodium β-glycerophosphate, 2 mM dithiothreitol, 0.4 mM ATP and 3 μM FL-Peptide 7 (manufactured by Caliper Life Sciences, Inc.) was added in equal amount (10 μl in total). The obtained liquid was allowed to react at 25° C. for 2 hours, and 10 μl of 20 mM EDTA was then added thereto to stop the reaction.
To detect phosphorylated fluorescent substrates, the reaction liquid was applied to a measuring device, LabChip EZ Reader II manufactured by Caliper Life Science, Inc., for detecting fluorescence by using differences in mobility due to differences in charge. The setting conditions for the device were pressure, −1.5 PSI; upstream voltage, −2250 V; downstream voltage, −400 V; post sample buffer sip time, 40 seconds; final delay, 120 seconds; and peak order, Product First.

T1 sequence (Q13131 10-559 limits assumed): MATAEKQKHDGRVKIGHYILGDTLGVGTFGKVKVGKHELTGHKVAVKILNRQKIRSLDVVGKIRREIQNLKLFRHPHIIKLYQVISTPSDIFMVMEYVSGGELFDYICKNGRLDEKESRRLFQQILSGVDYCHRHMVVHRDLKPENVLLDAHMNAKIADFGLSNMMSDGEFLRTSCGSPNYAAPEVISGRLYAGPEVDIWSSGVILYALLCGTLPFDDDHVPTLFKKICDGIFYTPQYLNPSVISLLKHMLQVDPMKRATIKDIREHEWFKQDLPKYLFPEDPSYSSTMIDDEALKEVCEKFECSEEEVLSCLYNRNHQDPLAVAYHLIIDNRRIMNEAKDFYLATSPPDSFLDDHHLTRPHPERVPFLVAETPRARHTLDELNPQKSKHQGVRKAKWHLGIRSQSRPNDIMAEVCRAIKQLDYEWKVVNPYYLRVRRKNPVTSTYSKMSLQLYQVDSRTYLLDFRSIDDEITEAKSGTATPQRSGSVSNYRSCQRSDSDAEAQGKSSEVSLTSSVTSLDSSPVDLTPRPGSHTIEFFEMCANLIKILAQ
T1 sequence (Q9Y478 whole entry): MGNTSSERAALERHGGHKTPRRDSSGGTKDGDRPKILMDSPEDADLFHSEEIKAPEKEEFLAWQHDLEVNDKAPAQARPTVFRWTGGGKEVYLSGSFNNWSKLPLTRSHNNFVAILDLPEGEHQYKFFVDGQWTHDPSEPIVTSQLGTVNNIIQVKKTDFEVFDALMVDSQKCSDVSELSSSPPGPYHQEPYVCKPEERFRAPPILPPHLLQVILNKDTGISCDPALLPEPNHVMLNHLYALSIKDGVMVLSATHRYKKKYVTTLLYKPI
T1 sequence (P54619 whole entry partner): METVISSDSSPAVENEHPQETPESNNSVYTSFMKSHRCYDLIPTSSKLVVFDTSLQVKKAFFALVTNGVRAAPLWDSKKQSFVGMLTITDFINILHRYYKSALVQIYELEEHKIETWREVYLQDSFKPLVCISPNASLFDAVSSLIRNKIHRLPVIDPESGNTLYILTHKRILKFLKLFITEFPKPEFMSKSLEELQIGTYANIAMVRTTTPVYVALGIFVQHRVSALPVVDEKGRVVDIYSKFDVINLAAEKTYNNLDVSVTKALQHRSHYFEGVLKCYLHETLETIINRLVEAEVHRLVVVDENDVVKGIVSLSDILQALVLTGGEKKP

`CC(C)(NS(C)(=O)=O)c1ccc(Oc2nc3nc(-c4ccc(N5CCOCC5)cc4)c(Cl)cc3[nH]2)cc1` [Compound D-52]: the “EC150 (compound concentration showing 150% relative to the control)” value is reported as 2800 nM and the Emax turned out to be 169%.

For the compound `CONC(=O)C(C)(C)c1ccc(Oc2nc3nc(-c4ccc(N5CCOCC5)cc4)c(Cl)cc3[nH]2)cn1` [Compound D-102], the “EC150 (compound concentration showing 150% relative to the control)” value is given as 4300 nM and the maximum response (Emax) stood at 172%.

As for `Cc1ccc(Oc2nc3nc(-c4ccc(N5CCOCC5)cc4)c(Cl)cc3[nH]2)cc1` [Compound B-121], the “EC150 (compound concentration showing 150% relative to the control)” value amounted to 97 nM and the Emax was 278%.

Take `CC(=O)NC(C)(C)c1ccc(Oc2nc3nc(-c4ccc(C5=CCOCC5)cc4)c(Cl)cc3[nH]2)cc1` [Compound D-73]: the “EC150 (compound concentration showing 150% relative to the control)” value was 17 nM and the Emax was found to be 254%.

In the case of `CC(C)(C(N)=O)c1ccc(Oc2nc3nc(-c4ccc(C5(CO)CC5)cc4)c(Cl)cc3[nH]2)cn1` [Compound D-71], the “EC150 (compound concentration showing 150% relative to the control)” value is given as 860 nM and the Emax amounted to 174%.

Regarding `Cc1ccc(Oc2nc3nc(-c4ccc(-c5ccccc5)cc4)c(Cl)cc3[nH]2)cc1C(=O)O` [Compound B-22], the “EC150 (compound concentration showing 150% relative to the control)” value turned out to be 13 nM and the Emax was 339%.

With `CC(C)(C(N)=O)c1ccc(Oc2nc3nc(-c4ccc(N5CCOCC5)cc4)c(Cl)cc3[nH]2)cn1` [Compound D-7], the “EC150 (compound concentration showing 150% relative to the control)” value stood at 1600 nM and the Emax is 285%.

As to `CC(=O)NC(C)(C)c1ccc(Oc2nc3nc(-c4ccc(N5CCOCC5)cc4)c(Cl)cc3[nH]2)cc1` [Compound C-119], the “EC150 (compound concentration showing 150% relative to the control)” value was 130 nM and the Emax amounted to 237%.

With `Cc1ccc(Oc2nc3nc(N4CCCCC4)c(Cl)cc3[nH]2)cc1C(=O)O` [Compound B-3], the “EC150 (compound concentration showing 150% relative to the control)” value is 23 nM and the Emax came to 313%.

As for `CC(=O)NC(C)(C)c1ccc(Oc2nc3nc(-c4cccc(N(C)C)c4)c(Cl)cc3[nH]2)cc1` [Compound D-26], the “EC150 (compound concentration showing 150% relative to the control)” value was found to be 82 nM and the Emax was 282%.

Turning to `CC(C)(C(N)=O)c1ccc(Oc2nc3nc(-c4ccc(C5(CO)CC5)cc4)c(Cl)cc3[nH]2)cc1` [Compound D-24], the “EC150 (compound concentration showing 150% relative to the control)” value is given as 140 nM and the Emax was found to be 198%.

As to `CC(C)(C(=O)O)c1ccc(Oc2nc3nc(-c4ccc(N5CCOCC5)cc4)c(Cl)cc3[nH]2)cc1` [Compound B-107], the “EC150 (compound concentration showing 150% relative to the control)” value was determined as 250 nM and the Emax turned out to be 249%.

Take `CN1CCc2cc(-c3nc4nc(Oc5ccc(C(C)(C)C(N)=O)cc5)[nH]c4cc3Cl)ccc21` [Compound D-3]: the “EC150 (compound concentration showing 150% relative to the control)” value was 220 nM and the Emax was 192%.

Consider `O=C(O)CCc1ccc(Oc2nc3nc(-c4ccc(N5CCOCC5)cc4)c(Cl)cc3[nH]2)cc1` [Compound B-136], for which the “EC150 (compound concentration showing 150% relative to the control)” value is 27 nM and the maximal effect (Emax) came out at 333%.

`CC(C)(CO)c1ccc(Oc2nc3nc(-c4ccc(C5(CO)CC5)cc4)c(Cl)cc3[nH]2)cn1` [Compound D-72]: the “EC150 (compound concentration showing 150% relative to the control)” value came out at 220 nM and the Emax came to 192%.

For the compound `O=C(O)/C=C/c1cccc(Oc2nc3nc(-c4ccc(N5CCOCC5)cc4)c(Cl)cc3[nH]2)c1` [Compound B-109], the “EC150 (compound concentration showing 150% relative to the control)” value is listed as 140 nM and the Emax amounted to 315%.

`CC(=O)NCCCOc1ccc(-c2nc3nc(Oc4ccc(C(C)(C)NC(C)=O)cc4)[nH]c3cc2Cl)cc1` [Compound D-109]: the “EC150 (compound concentration showing 150% relative to the control)” value is listed as 18 nM and the Emax worked out at 270%.

Regarding `CC(C)(C(=O)O)c1ccc(Oc2nc3nc(-c4ccc(N5CCCC5)cc4)c(F)cc3[nH]2)cc1` [Compound C-39], the “EC150 (compound concentration showing 150% relative to the control)” value is 35 nM and the Emax was 279%.

Regarding `CC(C)(CO)c1ccc(Oc2nc3nc(-c4ccc(N5CCOCC5)cc4)c(Cl)cc3[nH]2)cc1` [Compound C-99], the “EC150 (compound concentration showing 150% relative to the control)” value stood at 170 nM and the Emax stood at 205%.

Turning to `CC(=O)NC(C)(C)c1ccc(Oc2nc3nc(-c4ccc(-c5ccccc5O)cc4)c(Cl)cc3[nH]2)cc1` [Compound D-39], the “EC150 (compound concentration showing 150% relative to the control)” value is 0.6 nM and the Emax stood at 310%.

Consider `COC(=O)NC(C)(C)c1ccc(Oc2nc3nc(-c4ccc(N5CCOCC5)cc4)c(Cl)cc3[nH]2)cn1` [Compound D-56], for which the “EC150 (compound concentration showing 150% relative to the control)” value is reported as 68 nM and the Emax was found to be 211%.

Regarding `CCc1ccc(Oc2nc3nc(-c4ccc(N5CCOCC5)cc4)c(Cl)cc3[nH]2)cn1` [Compound C-89], the “EC150 (compound concentration showing 150% relative to the control)” value was 470 nM and the Emax came to 242%.

Turning to `O=C(O)COc1ccc(Oc2nc3nc(-c4ccc(N5CCOCC5)cc4)c(Cl)cc3[nH]2)cc1` [Compound B-110], the “EC150 (compound concentration showing 150% relative to the control)” value is 160 nM and the Emax stood at 288%.

For `O=C(O)c1cncc(Oc2nc3nc(-c4ccc(N5CCOCC5)cc4)c(Cl)cc3[nH]2)c1` [Compound B-126], the “EC150 (compound concentration showing 150% relative to the control)” value came to 180 nM and the Emax was determined as 262%.

In the case of `NCc1ccc(Oc2nc3nc(-c4ccc(N5CCOCC5)cc4)c(Cl)cc3[nH]2)cc1` [Compound B-117], the “EC150 (compound concentration showing 150% relative to the control)” value was 370 nM and the Emax amounted to 243%.

For `Cc1ccc(Oc2nc3nc(-c4ccc(N5CCCCC5=O)cc4)c(Cl)cc3[nH]2)cc1C(=O)O` [Compound C-88], the “EC150 (compound concentration showing 150% relative to the control)” value is given as 120 nM and the Emax came to 298%.

Regarding `Cc1ccc(Oc2nc3cc(-c4ccc5c(ccn5C)c4)ccc3[nH]2)cc1C(=O)O` [Compound B-5], the “EC150 (compound concentration showing 150% relative to the control)” value came out at 4700 nM and the Emax was determined as 176%.

For `Cc1ccc(Oc2nc3nc(-c4ccc(CO)cc4)c(Cl)cc3[nH]2)cc1C(=O)O` [Compound B-13], the “EC150 (compound concentration showing 150% relative to the control)” value amounted to 76 nM and the Emax is 311%.

`CC(C)(C)C(=O)NC(C)(C)c1ccc(Oc2nc3nc(-c4ccc(N5CCOCC5)cc4)c(Cl)cc3[nH]2)cc1` [Compound D-65]: the “EC150 (compound concentration showing 150% relative to the control)” value is 42 nM and the Emax came to 252%.

Turning to `CC(C)(C(=O)O)c1cccc(Oc2nc3nc(-c4ccc(N5CCOCC5)cc4)c(Cl)cc3[nH]2)c1` [Compound D-18], the “EC150 (compound concentration showing 150% relative to the control)” value was determined as 21 nM and the Emax worked out at 325%.

Consider `CC(=O)NC(C)(C)c1ncc(Oc2nc3nc(-c4ccc(N5CCOCC5)cc4)c(Cl)cc3[nH]2)cn1` [Compound D-2], for which the “EC150 (compound concentration showing 150% relative to the control)” value turned out to be 220 nM and the Emax is 255%.

With `CC(C)(CO)c1ccc(Oc2nc3nc(-c4ccc(N5CCOCC5)cc4)c(Cl)cc3[nH]2)cn1` [Compound D-9], the “EC150 (compound concentration showing 150% relative to the control)” value was found to be 380 nM and the Emax amounted to 186%.

As for `Cc1ccc(Oc2nc3nc(-c4ccccc4)c(Cl)cc3[nH]2)cc1C(=O)O` [Compound B-10], the “EC150 (compound concentration showing 150% relative to the control)” value is recorded as 280 nM and the Emax turned out to be 290%.
